The test system of one data set is TDP-43^Q331K mouse model. As to the kind of experiment: Example 4 accelerating rotarod test. The format is in vivo. Particulars: TDP-43^Q331K mice, 5 mg/kg once daily s.c., one time point (19 weeks of age). As for the experimental part: (§1) Following genotyping, transgenic females were block randomized into three different dosing groups: vehicle once daily, 2.5 mg/kg (6aS)-6-methyl-5,6,6a,7-tetrahydro-4H-dibenzo[de,g]quinoline-10,11-diol twice daily and 5 mg/kg (6aS)-6-methyl-5,6,6a,7-tetrahydro-4H-dibenzo[de,g]quinoline-10,11-diol once daily. The doses were selected based on results of previous internal studies. Animals were weighed daily before dosing and dosed subcutaneously at 10 ml/kg with a solution of 0.5 mg/ml (6aS)-6-methyl-5,6,6a,7-tetrahydro-4H-dibenzo[de,g]quinoline-10,11-diol for the 5 mg/kg dose and 0.25 mg/ml for the 2.5 mg/kg dose. Where animals were dosed twice a day, the doses were at least 6 hours apart and the dosing solution was freshly made for the second dose of the day.
The study was designed with two main cohorts of mice. One cohort was dosed from 25 days of age until 6 months of age and mice had behavioral testing throughout the study and consisted of 14 mice per group. […]
Mice were tested on the accelerating rotarod (Jones & Roberts for mice, model 7650) once a week from 40 days of age until the end of the study. […] Mice are placed on the rotarod and the time taken to fall from the rotarod (latency to fall) is recorded. For each day of testing, each mouse was tested twice on the rotarod with a small rest in between trials and the best result from the two trials is recorded. […]

For the next data set, the system named is HSF1 regulated genes. As to the kind of experiment: Example 2 in vivo pharmacodynamic study via subcutaneous dosing, cortex: expression of genes upregulated by HSF1 activation. Also noted: species or system mouse. Particulars: for Dlg4 gene induction / Dnajba gene induction / Hspa1a gene induction / Hspa8 gene induction / Syn1 gene induction: wildtype mouse cortex, 5 mg/kg s.c. once daily 7 days, compared to Gapdh. As for the experimental part: Wildtype mice (3 per group) were dosed subcutaneously at 0, 0.5, 1.5, 5 and 10 mg/kg (6aS)-6-methyl-5,6,6a,7-tetrahydro-4H-dibenzo[de,g]quinoline-10,11-diol hydrochloride for 7 days once daily. One animal in the 10 mg/kg dosing group was actually dosed 15 mg/kg on Day 1. To prepare the dosing solutions, (6aS)-6-methyl-5,6,6a,7-tetrahydro-4H-dibenzo[de,g]quinoline-10,11-diol was pre-weighed into bijous and stored in foil.

For another data set, the system named is NQO1. Nature of the data set: Example 5 western blot protein analysis in induced astrocytes. In kind it is cell-based. The note with it: human iAstrocytes (CTR, C9orf72, sALS, SOD1 donors), 10 uM, 48 hours treatment. The source says:
Induced NPCs were generated from adult human fibroblasts from patients who had been diagnosed with ALS and from age-matched healthy controls, using an approach reported previously (Kim et al PNAS, […]. 108(19), 7838-7843; Meyer et al., PNAS, 2014. 111(2), 829-832). Induced NPCs are differentiated into induced astrocytes (iAstrocytes) by culturing the progenitors in iAstrocyte medium for a total of 7 days with a medium change at day 3.
Cells were scraped from 10 cm dishes and cell pellets were lysed in ice cold IP lysis buffer (150 mM NaCl, 50 mM HEPES, 1 mM EDTA, 1 mM DTT, 0.5% (v/v) Triton X-100, protease inhibitor cocktail, pH 8.0) for 15 minutes and further homogenized using a 25-gauge needle and syringe. Protein samples were separated by SDS-Polyacrylamide Gel Electrophoresis and then semi-dry transferred onto nitrocellulose membranes. Membranes were blotted with Anti-NQO1—1:1000 (5% milk/TBST); rabbit; abcam; ab34173 at 4° C. overnight and anti-Beta-actin—1:5,000 (5% milk/TBST); mouse; abcam; ab6276 clone AC-15 at 4° C. overnight.

The nature of data set [1]: Example 4 mouse weights in TDP-43^Q331K mouse model. In kind it is in vivo. The note with it: TDP-43^Q331K mice. How it is done: as §1
The study was designed with two main cohorts of mice. One cohort was dosed from 25 days of age until 6 months of age and mice had behavioral testing throughout the study and consisted of 14 mice per group. The other satellite cohort was dosed from 25 days of age until 3 months of age, with no behavioral testing and consisted of 6 mice per group for target engagement and histological assessment. Behavioral tests that were carried out during the experiment were: accelerated rotarod test, gait analysis, and electrophysiology.
Animals were weighed daily before dosing to calculate dose volume. […]

With `CN1CCc2cccc3c2[C@@H]1Cc1ccc(O)c(O)c1-3` [(6aS)-6-methyl-5,6,6a,7-tetrahydro-4H-dibenzo[de,g]quinoline-10,11-diol], in the data set with TDP-43^Q331K mouse model, the “rotarod performance (latency to fall) compared to vehicle dosed animals” value was “significant increase”. In addition, the “dose at which HSF1 regulated genes are activated” value with HSF1 regulated genes (mice, s.c. once daily 7 days, Example 2) is on record as at least 0.5 mg/kg. In the data set with HSF1 regulated genes (6 hours post final dose), this compound returned a Dlg4 gene induction of 1.46 fold, a Dnajba gene induction of 1.31 fold, a Hspa1a gene induction of 1.84 fold and a Hspa8 gene induction of 1.56 fold. For the same compound, the Syn1 gene induction in the data set on HSF1 regulated genes (6 hours post final dose) was determined as 1.68 fold. In the data set with HSF1 regulated genes (24 hours post final dose), this compound showed a Dlg4 gene induction of 0.90 fold, a Dnajba gene induction of 1.17 fold, a Hspa1a gene induction of 2.25 fold and a Hspa8 gene induction of 2.62 fold. The Syn1 gene induction with HSF1 regulated genes (24 hours post final dose) came out at 1.47 fold. In addition, in the data set with NQO1, the “NQO1 protein (western blot quantification) compared to DMSO treatment” value is listed as “significant increase”. In addition, the “mouse weight compared to the vehicle dosing group” value in data set [1] (3-month cohort, either dosing group (2.5 mg/kg twice daily, 5 mg/kg once daily s.c.)) is “no significant difference”. Also, the “mouse weight compared to the vehicle dosing group” value in data set [1] (6-month cohort, 2.5 mg/kg dosing group, from 121 days of age until the end of the study) is reported as “significant decrease”.

(Values after patent US20220265635A1, “TREATMENT OF NEUROLOGICAL DISEASE” (Aclipse One Inc., priority 2018, published 2022).)
